{"source": "patent US9943082B2", "about": "“Ternary fungicidal mixtures” (BAYER CROPSCIENCE AG, priority 2012, dated 2018)", "tested_on": "Puccinia triticina", "experiment": "Puccinia triticina test (wheat)/preventive", "assay_type": "in vivo", "conditions": "preventive spray, evaluated 8 days after inoculation", "experimental": "To produce a suitable preparation of active compound, 1 part by weight of active compound or active compound combination is mixed with the stated amounts of solvent and emulsifier, and the concentrate is diluted with water to the desired concentration.\nTo test for preventive activity, young plants are sprayed with the preparation of active compound or active compound combination at the stated rate of application.\nAfter the spray coating has been dried, the plants are sprayed with a spore suspension of Puccinia triticina. The plants remain for 48 hours in an incubation cabinet at approximately 20° C. and a relative atmospheric humidity of approximately 100%.\nThe plants are placed in the greenhouse at a temperature of approximately 20° C. and a relative atmospheric humidity of approximately 80%.\nThe test is evaluated 8 days after the inoculation. 0% means an efficacy which corresponds to that of the untreated control, while an efficacy of 100% means that no disease is observed."}
{"smiles": "CC1CC(C)(C)c2cccc(NC(=O)c3cn(C)nc3C(F)F)c21", "note": "(centres unmarked) [(I-1), 3-(difluoromethyl)-1-methyl-N-(1,1,3-trimethyl-2,3-dihydro-1H-inden-4-yl)-1H-pyrazole-4-carboxamide]", "values": [{"measurement": "Efficacy in % found", "setting": "30 ppm a.i.", "result": 78, "unit": "%"}]}
{"smiles": "COC(=O)N(OC)c1ccccc1COc1ccn(-c2ccc(Cl)cc2)n1", "note": "[3.14 pyraclostrobin, pyraclostrobin]", "values": [{"measurement": "Efficacy in % found", "setting": "10 ppm a.i.", "result": 22, "unit": "%"}]}
{"smiles": "OC(Cc1ccccc1Cl)(Cn1nc[nH]c1=S)C1(Cl)CC1", "note": "(centres unmarked) [2.23 prothioconazole, prothioconazole]", "values": [{"measurement": "Efficacy in % found", "setting": "20 ppm a.i.", "result": 0, "unit": "%"}]}
{"smiles": "CO/C=C(/C(=O)OC)c1ccccc1Oc1cc(Oc2ccccc2C#N)ncn1", "note": "[3.2 azoxystrobin, azoxystrobin]", "values": [{"measurement": "Efficacy in % found", "setting": "10 ppm a.i.", "result": 78, "unit": "%"}]}
{"smiles": "CON=C(C(=O)OC)c1ccccc1CON=C(C)c1cccc(C(F)(F)F)c1", "note": "[3.15 trifloxystrobin, trifloxystrobin]", "values": [{"measurement": "Efficacy in % found", "setting": "10 ppm a.i.", "result": 33, "unit": "%"}]}
